pIC50: −log10 of the molar value.
Tests used:
[1] = Toxicity in BALB/c nude mouse xenografted with human MV4-11 cells assessed as effect on heart at 20 mg/kg, ip administered every two days for 14 days by hematoxyin-eosin staining based analysis; assay type: organism-based; settings: in vivo, 336 h, time 14 day
MV4-11 = assay: Antitumor activity against human MV4-11 cells xenografted in BALB/c nude mouse assessed as tumor growth inhibition by measuring T/C ratio at 20 mg/kg, ip administered every two days for 14 days relative to control; assay type: functional; settings: time 14 day
[2] = Toxicity in BALB/c nude mouse xenografted with human MV4-11 cells assessed as effect on kidney at 20 mg/kg, ip administered every two days for 14 days by hematoxyin-eosin staining based analysis; assay type: organism-based; settings: in vivo, 336 h, time 14 day
[3] = target: Voltage-gated inwardly rectifying potassium channel KCNH2 (Homo sapiens, UniProt Q12809); assay: Inhibition of human ERG
Voltage-gated inwardly rectifying potassium channel KCNH2, sequence (Q12809 whole entry): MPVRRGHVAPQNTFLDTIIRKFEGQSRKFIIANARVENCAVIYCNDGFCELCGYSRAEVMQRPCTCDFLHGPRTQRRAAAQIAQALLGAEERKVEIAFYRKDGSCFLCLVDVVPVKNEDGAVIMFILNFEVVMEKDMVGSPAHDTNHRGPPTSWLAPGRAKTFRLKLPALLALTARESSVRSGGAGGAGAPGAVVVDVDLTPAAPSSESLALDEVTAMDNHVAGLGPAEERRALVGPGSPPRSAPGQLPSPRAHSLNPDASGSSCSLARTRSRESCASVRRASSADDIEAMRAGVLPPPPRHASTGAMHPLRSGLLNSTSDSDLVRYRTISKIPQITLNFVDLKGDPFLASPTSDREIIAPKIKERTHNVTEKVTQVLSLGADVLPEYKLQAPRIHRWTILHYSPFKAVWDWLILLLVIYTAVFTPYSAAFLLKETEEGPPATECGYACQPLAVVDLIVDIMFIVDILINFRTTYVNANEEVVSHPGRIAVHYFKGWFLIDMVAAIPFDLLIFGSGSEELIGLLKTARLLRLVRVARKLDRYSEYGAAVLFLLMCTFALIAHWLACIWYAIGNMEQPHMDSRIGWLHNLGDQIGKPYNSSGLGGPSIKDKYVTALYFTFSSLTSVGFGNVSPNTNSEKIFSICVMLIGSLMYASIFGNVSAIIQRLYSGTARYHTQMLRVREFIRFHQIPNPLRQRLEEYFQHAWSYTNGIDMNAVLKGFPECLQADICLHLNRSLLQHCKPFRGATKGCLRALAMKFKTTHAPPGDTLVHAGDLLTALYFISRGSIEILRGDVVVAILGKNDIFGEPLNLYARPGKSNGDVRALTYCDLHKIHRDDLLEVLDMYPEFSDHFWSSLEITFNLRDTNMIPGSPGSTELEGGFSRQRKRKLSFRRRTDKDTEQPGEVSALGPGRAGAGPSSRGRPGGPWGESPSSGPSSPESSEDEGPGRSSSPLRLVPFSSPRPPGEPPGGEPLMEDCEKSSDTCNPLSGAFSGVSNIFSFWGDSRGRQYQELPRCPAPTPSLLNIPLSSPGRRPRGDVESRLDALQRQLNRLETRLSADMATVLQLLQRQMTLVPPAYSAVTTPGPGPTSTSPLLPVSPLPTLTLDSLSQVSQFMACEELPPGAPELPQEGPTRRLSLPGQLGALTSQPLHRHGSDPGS

[4] = Half life in human liver microsomes; assay type: ADME, Microsome
[5] = Toxicity in BALB/c nude mouse xenografted with human MV4-11 cells assessed as effect on liver at 20 mg/kg, ip administered every two days for 14 days by hematoxyin-eosin staining based analysis; assay type: organism-based; settings: in vivo, 336 h, time 14 day
[6] = Toxicity in BALB/c nude mouse xenografted with human MV4-11 cells assessed as effect on heart weight at 60 mg/kg, po administered every two days for 14 days; assay type: organism-based; settings: in vivo, 336 h, time 14 day
P-gp = P-gp (Homo sapiens, UniProt P08183); assay: Substrate activity at P-gp in human Caco-2 cells assessed as efflux ratio of permeability by LC-MS/MS analysis; assay type: ADME, cell-based
P-gp, sequence (P08183 whole entry): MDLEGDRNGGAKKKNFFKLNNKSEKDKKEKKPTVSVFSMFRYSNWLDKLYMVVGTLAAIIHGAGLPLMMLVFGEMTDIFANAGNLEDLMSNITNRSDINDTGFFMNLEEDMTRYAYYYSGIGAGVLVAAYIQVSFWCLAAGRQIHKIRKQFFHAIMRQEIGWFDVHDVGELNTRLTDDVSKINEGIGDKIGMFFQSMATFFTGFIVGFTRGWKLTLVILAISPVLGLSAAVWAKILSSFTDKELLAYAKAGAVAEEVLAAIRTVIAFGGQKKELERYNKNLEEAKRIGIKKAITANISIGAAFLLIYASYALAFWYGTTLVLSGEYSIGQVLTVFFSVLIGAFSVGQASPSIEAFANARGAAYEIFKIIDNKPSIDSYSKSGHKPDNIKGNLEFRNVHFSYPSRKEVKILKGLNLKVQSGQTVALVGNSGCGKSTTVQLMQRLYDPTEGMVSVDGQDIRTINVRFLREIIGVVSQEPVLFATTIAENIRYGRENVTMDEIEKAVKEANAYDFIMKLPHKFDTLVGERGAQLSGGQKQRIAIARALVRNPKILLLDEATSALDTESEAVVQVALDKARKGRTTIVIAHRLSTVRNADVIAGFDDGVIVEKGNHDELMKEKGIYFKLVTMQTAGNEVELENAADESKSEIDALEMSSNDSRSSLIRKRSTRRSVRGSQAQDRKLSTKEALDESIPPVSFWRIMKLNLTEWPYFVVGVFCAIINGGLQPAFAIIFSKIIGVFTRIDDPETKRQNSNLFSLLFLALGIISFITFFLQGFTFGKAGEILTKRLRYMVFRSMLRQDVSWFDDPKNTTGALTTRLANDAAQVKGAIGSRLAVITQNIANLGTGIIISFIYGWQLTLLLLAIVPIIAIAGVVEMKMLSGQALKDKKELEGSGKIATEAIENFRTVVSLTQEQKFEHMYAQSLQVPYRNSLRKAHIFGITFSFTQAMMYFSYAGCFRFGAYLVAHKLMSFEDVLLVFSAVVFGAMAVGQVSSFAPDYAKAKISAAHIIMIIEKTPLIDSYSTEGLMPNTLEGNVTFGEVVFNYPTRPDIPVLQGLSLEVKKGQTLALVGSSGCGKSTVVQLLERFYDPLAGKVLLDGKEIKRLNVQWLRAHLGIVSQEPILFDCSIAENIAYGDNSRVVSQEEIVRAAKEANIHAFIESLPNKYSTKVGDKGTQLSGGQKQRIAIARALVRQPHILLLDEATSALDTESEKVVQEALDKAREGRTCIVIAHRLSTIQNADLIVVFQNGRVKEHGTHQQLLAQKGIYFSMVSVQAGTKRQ

NCI-H929 [7] = assay: Induction of apoptosis in human NCI-H929 cells assessed as upregulation of cleaved PARP measured after 48 hrs by Western blot analysis; assay type: functional, cell-based; settings: dose microM <=5, time 48.0 hrs
[8] = Cmax in Sprague-Dawley rat at 10 mg/kg, po measured up to 24 hrs by LC-MS/MS analysis; assay type: ADME, organism-based; set-up: route oral, dose 10 mg/kg, time <=24; settings: in vivo
[9] = Toxicity in BALB/c nude mouse xenografted with human MV4-11 cells assessed as effect on liver at 60 mg/kg, po administered every two days for 14 days by hematoxyin-eosin staining based analysis; assay type: organism-based; settings: in vivo, 336 h, time 14 day
[10] = Stability of the compound in human plasma assessed as parent compound remaining measured after 2 hrs by LC-MS/MS analysis; assay type: ADME, cell-free; settings: read-out: Stabilty
[11] = Stability of the compound in mouse plasma assessed as parent compound remaining measured after 2 hrs by LC-MS/MS analysis; assay type: ADME, cell-free; settings: read-out: Stabilty
NCI-H929 [12] = assay: Induction of apoptosis in human NCI-H929 cells measured after 48 hrs by annexinV-FITC/propidium iodide staining based flow cytometry analysis; assay type: functional, cell-based; settings: dose 1-5 µM

CC(=O)c1ccc(S(=O)(=O)c2c(C)c(C(=O)O)n(CCCOc3cc(C)c(Cl)c(C)c3)c2C)cc1
Activity [1]: Non-Toxic | T/C (MV4-11): 5.52% | Activity [2]: Non-Toxic | pIC50 [3]: < 4.52 | half-life [4]: 49.8 min | Activity [5]: Non-Toxic | Activity [6]: Non-Toxic | efflux ratio (P-gp): 0.1 | Activity (NCI-H929 [7]): Dose-Dependent Effect | Cmax [8]: 2010 ng/mL | Activity [9]: Non-Toxic | remaining at 2 h [10]: 96.5% | remaining at 2 h [11]: 100% | Activity (NCI-H929 [12]): Dose-Dependent Effect

— ChEMBL document CHEMBL4834480, “Discovery of 3,5-Dimethyl-4-Sulfonyl-1H-Pyrrole-Based Myeloid Cell Leukemia 1 Inhibitors with High Affinity, Selectivity, and Oral Bioavailability” (J Med Chem, 2021)
